Key:
VX2 tumor = assay: Oral administration of 3-BrPA in the VX2 liver tumor rabbit model; assay type: in vivo, New Zealand White rabbits
Procedure: New Zealand White rabbits were used in the study. All rabbits, carriers and recipients, were anesthetized with a mixture of acepromazine (2.5 mg/kg; Phoenix, St. Joseph, Mo.) and ketamine hydrochloride (44 mg/kg; Phoenix) administered intramuscularly. The VX2 tumor cell suspension was first injected into the hind legs of carrier rabbits and grown for 2 weeks. Resultant tumors were harvested from each carrier and a tumor suspension was prepared from each harvested tumor by dissection of viable tumor tissue and aseptic mincing.
For the rabbits that were going to receive the VX2 tumor implanted in the liver, intravenous access was gained via a marginal ear vein and 0.1-0.2 ml (2.5-5 mg) of sodium pentobarbital (Abbott Laboratories, Abbott Park, Ill.) was given periodically to maintain anesthesia. The abdomen of each recipient rabbit was shaved and disinfected with ethanol and povidine iodine. The liver of the rabbit was exposed by a midline incision, then an aliquot of the tumor cell suspension (0.2 ml) was injected directly using a 21-gauge angiocatheter into the left lobe of the liver in order to develop a solitary lesion with adequate surrounding liver parenchyma. The abdomen was closed in two layers. The tumor was allowed to grow in the rabbit livers for 7 days. Pain and distress levels were assessed by daily by monitoring food intake, feces and urine production and finally checking for signs of guarding or reluctance to move when touched.
Oral administration of 3-BrPA dissolved in PBS was examined using the VX2 tumor model, an animal model for hepatocellular carcinoma (described above). VX2 tumors were allowed to grow the livers of 12 New Zealand White rabbits for 10 days. Tumor bearing rabbits were divided in 4 groups. Group 1 (n=3) received 5 mg of 3-BrPA in 2.75 ml of Phosphate Buffered Saline (PBS) orally once a day, group 2 (n=3) received 10 mg of 3-BrPA in 2.75 ml of PBS orally once a day, group 3 (n=3) received 50 mg of 3-BrPA in 2.75 ml of PBS orally once a day and group 4 (control, n=3) received no treatment. Median survival for the animals in group 1 (n=3), receiving 5 mg of 3-BrPA in 2.75 ml of PBS, was 66 days. Animals in group 2 (n=3), receiving 10 mg of 3-BrPA in 2.75 ml of PBS, survived for 70 days. All the animals in group 3 (n=3), receiving 50 mg of 3-BrPA in 2.75 ml of PBS expired within 24 hours of oral administration of the first dose.
To test whether buffering 3-BrPA with NaHCO3 would allow oral administration of a higher dose of 3-BrPA, the maximum tolerated dose of orally administered 3-BrPA dissolved in NaHCO3 was determined. As in Example 1, the VX2 tumor model was used, with VX2 tumors grown in the livers of 12 New Zealand White rabbits for 10 days. Once again, the tumor bearing rabbits were divided in 4 groups. […] All animals in group 3 (n=3) expired within 24 hours after receiving 1000 mg of 3-BrPA in 2.75 ml of NaHCO3 orally.
The effect of pH on the survival of rabbits bearing VX2 liver tumors that were treated with the MTD of 3-BrPA buffered with NaHCO3 was examined. The VX2 tumor model was once again used, as described above. A total of 20 New Zealand White rabbits were included in the study. All rabbits received VX2 tumor implantation as described above. The tumor was allowed to grow in the rabbit livers for 7 days. Rabbits were divided in 4 groups. Group 1 (n=6) received 500 mg of 3-BrPA in 2.75 ml of NaHCO3 (1 M, resulting in pH 4), group 2 (n=2) received 500 mg of 3-BrPA in 2.75 ml of PBS (resulting in pH<2), group 3 (n=6) received 500 mg of 3-BrPA in 2.75 ml of NaHCO3 (2 M, resulting in pH 7) and group 4 (n=6) received no treatment (control group). All drugs were administered orally once a day.

[1] = tested on: Human PANC-10 pancreatic cancer cells; assay: Orthotopic xenograft pancreatic cancer model, oral 3-BrPA; assay type: in vivo, NOD/SCID mice; details: for Tumor size at day 50: NaHCO3-buffered, oral
Procedure: The efficacy of orally administered 3-BrPA in the treatment of pancreatic cancer was tested using an orthotopic xenograft pancreatic cancer model. Human PANC-10 pancreatic cancer cells were implanted into the pancreas of NOD/SCID mice and allowed to form 4-5 mm^3 sized tumors. Following the establishment of the tumors, tumor-bearing mice were orally administered 250 μl of a NaHCO3-buffered solution containing varying concentrations of 3-BrPA once per day. After 50 days of treatment, the tumor-bearing mice were sacrificed and tumor growth and cancer cell proliferation was analyzed.

[2] = MTD of 3-BrPA buffered with 2.75 ml of NaHCO3
[3] = MTD of 3-BrPA buffered with NaHCO3

Q: Which Median survival (VX2 tumor; 5 mg of 3-BrPA in 2.75 ml of PBS orally once a day) does the source give for `O=C(O)C(=O)CBr` [3-BrPA, 3-bromopyruvate] here?
A: Its Median survival is 66 days.

Q: And the Survival (VX2 tumor; 10 mg of 3-BrPA in 2.75 ml of PBS orally once a day)?
A: Its Survival is 70 days.

Q: What about the Median survival (VX2 tumor; 50 mg of 3-BrPA in 2.75 ml of NaHCO3 (1M) orally once a day) of the same compound?
A: Its Median survival is 60 days.

Q: What about the “Time to death after first oral dose (all animals expired)” value (VX2 tumor; 50 mg of 3-BrPA in 2.75 ml of PBS orally) of the same compound?
A: The value was no more than 24 h.

Q: And the “Animal survival, Kaplan Meier analysis” value (VX2 tumor; 500 mg in 2.75 ml of NaHCO3 (1 M, resulting in pH 4), orally once a day, compared to groups 2, 3 and 4)?
A: Its value is “significant survival benefit”.

Q: And the Median survival time (VX2 tumor; 500 mg of 3-BrPA in 2.75 ml of NaHCO3 orally once a day)?
A: The Median survival time was 100 days.

Q: And the “Outcome of unbuffered 3-BrPA” value (VX2 tumor; 500 mg, unbuffered, pH<2, oral)?
A: The value was “immediate death”.

Q: What about the “Time to death (all animals expired)” value (VX2 tumor; 1000 mg of 3-BrPA in 2.75 ml of NaHCO3 orally) of the same compound?
A: Its value is no more than 24 h.

Q: What about the “Survival longer than rabbits that did not receive 3-BrPA” value (VX2 tumor; [2]) of the same compound?
A: Its value is 79%.

Q: And the “Survival longer than rabbits treated with the MTD of 3-BrPA buffered with PBS” value (VX2 tumor; [2])?
A: The value was 42%.

Q: What about the Cause of death (VX2 tumor; [3]) of the same compound?
A: The Cause of death was “died of aspiration”.

Q: And the “Mean liver tumor size” value (VX2 tumor; [3])?
A: Its value is less than 0.5 cm.

Q: And the Metastases on pathology (VX2 tumor; [3])?
A: Its Metastases on pathology is “no metastases”.

Q: What about the “Mean liver tumor size” value (VX2 tumor; all other groups) of the same compound?
A: The value was greater than 8 cm.

Q: And the Metastases on pathology (VX2 tumor; all other rabbits)?
A: Its Metastases on pathology is “widespread metastases”.

Q: What about the “Increase of MTD compared to the MTD of 3-BrPA in PBS” value (VX2 tumor; buffered with 2.75 ml of 1M NaHCO3) of the same compound?
A: The value was 50 fold.

Q: And the “Maximum tolerated dose (MTD)” value (VX2 tumor; buffered with 2.75 ml of 1M NaHCO3, oral)?
A: Its value is 500 mg.

Q: What about the “Effectiveness as a cancer therapeutic” value (VX2 tumor; buffering conditions that resulted in a pH>6 (500 mg in 2 M NaHCO3, pH 7)) of the same compound?
A: The value was “less effective”.

Q: What about the “Maximum tolerated dose (MTD)” value (VX2 tumor; dissolved in 2.75 ml of PBS, oral) of the same compound?
A: The value was 10 mg.

Q: And the “Tumor size at day 50” value ([1]; daily dose of 50 mg/kg)?
A: The value was 12-14 mm^3.

Q: What about the “Tumor size at day 50” value ([1]; daily dose of 100 mg/kg) of the same compound?
A: Its value is 7-8 mm^3.

Q: What about the “Tumor size at day 50” value ([1]; daily dose of 150 mg/kg) of the same compound?
A: Its value is 4-6 mm^3.

Q: What about the “Tumor size at day 50” value ([1]; daily dose of 200 mg/kg) of the same compound?
A: The value was 3-5 mm^3.

Q: What about the Local metastases ([1]; daily dose of 50 mg/kg) of the same compound?
A: Its Local metastases is “lacked any signs of local metastases”.

Q: And the Mitotic index ([1]; daily dose of 50 mg/kg)?
A: Its Mitotic index is 9-10 mitotic cells per field.

Q: What about the Local metastases ([1]; daily dose of 100 mg/kg) of the same compound?
A: The Local metastases was “lacked any signs of local metastases”.

Q: What about the Mitotic index ([1]; daily dose of 100 mg/kg) of the same compound?
A: Its Mitotic index is 7 mitotic cells per field.

Q: And the Local metastases ([1]; daily dose of 150 mg/kg)?
A: The Local metastases was “lacked any signs of local metastases”.

Q: And the Mitotic index ([1]; daily dose of 150 mg/kg)?
A: Its Mitotic index is 2-4 mitotic cells per field.

Q: What about the Local metastases ([1]; daily dose of 200 mg/kg) of the same compound?
A: Its Local metastases is “lacked any signs of local metastases”.

Q: And the Mitotic index ([1]; daily dose of 200 mg/kg)?
A: Its Mitotic index is 1-2 mitotic cells per field.

Q: What about the Tumor growth ([1]; daily dose of 200 mg/kg, day 50) of the same compound?
A: The Tumor growth was “no signs of growth”.
